Test results as given in patent publication US20210077479A1, “FORMULATIONS OF PIMAVANSERIN” (ACADIA Pharmaceuticals Inc., priority 2017, published 2021).

Columns and labels:
[1] = Carr's Index (Carr's Compressibility Index), USP <616>/<1174>; type: physicochemical
Protocol: (§1) Can's Index compares the difference between the bulk density and tapped density of a substance to determine its compressibility. The bulk density and the Carr's Index may be determined in accordance with USP<616> (method for performing Bulk and Tapped Densities, method 1) and USP<1174> (definition of powder flow) respectively.
Table 1 visualizes that filling of a capsule, in particular a capsule of size 3 or 4 (capsule volumes of 0.30 and 0.21 ml respectively, approximately […] and 85 mg respectively at a bulk density of 0.5 g/ml). As evident from Table 1, native pimavanserin (API) would be challenging for a size 3 capsule and not possible for a capsule of size 4 without improving the bulk density (as comparison 85 mg of pimavanserin granulation would require about 0.17 ml compared to 0.29 nil for the native API) and flowability (Carr index is frequently used in pharmaceutical manufacturing as an indication of the flowability of a powder, e.g. 2016 U.S. Pharmacopoeia-National Formulary [USP 35 NF 30]).

[2] = Bulk density according to USP <616>, method 1; type: physicochemical
Excerpt: as §1
The bulk density of the blended composition is >0.4 g/ml, such as 0.4-0.6 g/ml, such as about 0.5 g/ml determined according to USP <616>, method 1. In some embodiments the bulk density of the composition is >0.4 g/ml, such as about 0.5 g/ml, such as 0.51 g/ml, such as 0.508 g/ml.
The bulk density of pimavanserin granulation is >0.4 g/ml, such as 0.4-0.6 g/ml, such as about 0.5 g/ml, determined according to USP <616>, method 1. In some embodiments the bulk density of the pimavanserin granulation is >0.4 g/ml, such as about 0.5 g/ml, such as 0.51 g/ml, such as 0.508 g/ml.

[3] = Laser light scattering particle size analysis (Malvern Mastersizer 2000); type: physicochemical; settings: FIG. 4 / FIG. 5
Excerpt: The small quantity of water, its application using appropriate water atomization and/or water application rate are important reasons for the improved properties of pimavanserin. […] The actual amount of water to be sprayed at the granulation of pimavanserin may vary from batch to batch (depending on surrounding factors such as humidity, temperature, exact properties of the API batch, etc) but is still consider to be a small amount, e.g. 3-10% w/w based on the dry ingredients. The amount of water and the granulation process disclosed herein is controlled by controlling the impeller energy to achieve the targeted impeller speed. The appropriate impeller speed ensures sufficient mixing and controls the growth of granules. The specific small amount of water needed for each batch is controlled by the power consumption (amperage) of the granulator, i.e., if the amperage is […], additional amounts of water could be sprayed to the granulate in order to obtain pimavanserin having the properties desired in order to pharmaceutically manufacture capsules comprising 5-34 mg pimavanserin. […] The properties are achieved via a manufacturing process that includes granulation, using a suitable granulator, e.g. a high shear granulator, simultaneously spraying the adequate amount of water while mixing, followed by screening, and blending appropriate quantities of excipients. […]

[4] = system: DOI ((±)-2,5-dimethoxy-4-iodoamphetamine, a serotonin agonist) induced head twitches; settings: rat, oral doses of 3 and 10 mg/kg; cited from earlier work

Compound	Carr's Index [1]	Bulk density according to USP <616> [2]	volume required for 85 mg ([2]; 85 mg of powder, from bulk density)	particle size distribution D90 [3]	activity against DOI induced head twitches [4]
pimavanserin tartrate [Native API]	36 (n = 2)	0.294 (n = 2) g/ml	0.29 mL	about 30 μm	–
CC(C)COc1ccc(CNC(=O)N(Cc2ccc(F)cc2)C2CCN(C)CC2)cc1 [Pimavanserin, N-(1-methylpiperidin-4-yl)-N-(4-fluorophenylmethyl)-N′-(4-(2-methylpropyloxy)phenylmethyl)carbamide]	–	–	–	–	effective
